The values below come from patent US20090104240A1, “Dual Drug Formulations For Implantable Medical Devices For Treatment of Vascular Diseases” (Abbott Cardiovascular Systems Inc., priority 2007, published 2009).

For data set [1], the system named is inflammation. In words: effect of corticosteroid on inflammation. As to conditions: super high potency corticosteroid. It is filed as in vivo.
The subject of data set [2] is vessel endothelialization. The data set can be described thus: effect of corticosteroid on vessel endothelialization. In kind it is in vivo. The following applies: super high potency corticosteroid.

For the molecule `CC1CC2C3CCC4=CC(=O)C=CC4(C)C3(F)C(=O)CC2(C)C1(O)C(=O)CCl` (centres unmarked) [clobetasone], the “effect with regard to inflammation” value in data set [1] is recorded as “beneficial effect with regard to inflammation”. Besides, the vessel endothelialization result in data set [2] is listed as “impairment of vessel endothelialization was observed”.
